Laboratory results from patent publication US11524966B1 (Valo Early Discovery, Inc., priority 2017, dated 2022).
pIC50: −log10 of the molar value.

Biological target: T1, USP25 (USP25-His6, Boston Biochem E-546) (Homo sapiens, UniProt Q9UHP3)
T1 construct: His6; purchased Boston Biochem E-546
T1 sequence (Q9UHP3 1-1055): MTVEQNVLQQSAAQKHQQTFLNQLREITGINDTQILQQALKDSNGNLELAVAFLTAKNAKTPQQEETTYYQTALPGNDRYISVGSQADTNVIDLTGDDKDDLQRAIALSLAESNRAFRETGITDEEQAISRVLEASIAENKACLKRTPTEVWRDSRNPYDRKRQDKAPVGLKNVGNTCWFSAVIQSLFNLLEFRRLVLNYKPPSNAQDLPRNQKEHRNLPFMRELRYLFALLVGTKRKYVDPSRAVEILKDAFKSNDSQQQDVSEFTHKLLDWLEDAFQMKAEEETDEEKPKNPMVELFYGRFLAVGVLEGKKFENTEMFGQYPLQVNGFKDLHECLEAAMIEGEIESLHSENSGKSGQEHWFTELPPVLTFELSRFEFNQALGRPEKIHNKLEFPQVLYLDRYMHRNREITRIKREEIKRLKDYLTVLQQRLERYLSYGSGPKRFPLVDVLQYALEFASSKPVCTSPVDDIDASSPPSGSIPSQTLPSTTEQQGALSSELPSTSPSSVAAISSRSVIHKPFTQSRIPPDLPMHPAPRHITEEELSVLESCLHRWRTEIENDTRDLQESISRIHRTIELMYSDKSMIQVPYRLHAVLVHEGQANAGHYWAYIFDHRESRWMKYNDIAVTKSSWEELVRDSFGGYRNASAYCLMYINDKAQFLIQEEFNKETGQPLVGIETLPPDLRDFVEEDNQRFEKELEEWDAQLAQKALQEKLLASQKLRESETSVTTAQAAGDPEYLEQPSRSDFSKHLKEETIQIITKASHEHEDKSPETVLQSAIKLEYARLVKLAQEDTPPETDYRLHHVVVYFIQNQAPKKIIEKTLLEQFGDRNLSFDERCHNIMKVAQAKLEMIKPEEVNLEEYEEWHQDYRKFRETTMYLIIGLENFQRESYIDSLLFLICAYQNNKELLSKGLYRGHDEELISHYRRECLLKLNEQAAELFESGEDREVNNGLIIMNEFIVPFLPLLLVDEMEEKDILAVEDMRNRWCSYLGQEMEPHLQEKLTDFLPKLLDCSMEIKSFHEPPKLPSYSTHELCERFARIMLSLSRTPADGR
Experiment: Ubiquitin-Rhodamine 110 Assay for USP25 Activity, Example A-2
Type: biochemical
Conditions: Ubiquitin-Rhodamine 110 assay, Example A-2; read-out: USP25 A-2 IC50 range
Procedure, shortened: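 Fluorescence (ex 485, em 535 nm) of cleaved ubiquitin-rhodamine 110 (25 nM, below Km) gave IC50 via 4-parameter logistic fit. Reaction: 45 min, room temperature, citric acid stop, after 30 min compound preincubation with 75 pM USP25-His6 in 20 mM Tris pH 8.0, 3 mM BME, 0.03% BGG, 0.01% Triton X-100; top dose 25 μM.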

SMILES | pIC50
Cc1ccc2c(N)c(C(=O)N[C@H]3COc4cc(N5C[C@@H](N)[C@H](OC(F)(F)F)C5)ccc4C3)sc2n1 (single isomer, unassigned) [Example 3-9] | 5.70 to 6.70
Cc1ccc2c(N)c(C(=O)N[C@H]3COc4cc(N5C[C@H](OC(F)(F)F)[C@@H](N)C5)ccc4C3)sc2n1 (single isomer, unassigned) [Example 3-10] | 5.70 to 6.70
Cc1ccc2c(N)c(C(=O)N[C@H]3COc4c(cc(F)c(N5CCNCC5)c4F)C3)sc2n1 (single isomer, unassigned) [Example 3-17] | 6.70 to 7.30
Cc1ccc2c(N)c(C(=O)N[C@@H]3COc4c(cc(F)c(N5CCNCC5)c4F)C3)sc2n1 (single isomer, unassigned) [Example 3-18] | < 5.70
Cc1ccc2c(N)c(C(=O)N[C@H]3COc4cc(N5C[C@H](N)CC56COC6)ccc4C3)sc2n1 (single isomer, unassigned) [Example 351] | 7.30 to 9.00
Cc1ccc2c(N)c(C(=O)N[C@H]3COc4cc(N5C[C@@H](N)CC56COC6)ccc4C3)sc2n1 (single isomer, unassigned) [Example 352] | 6.70 to 7.30
O=C(N[C@H]1CCc2c(c(F)cc(N3CC4CCC(C3)N4)c2C(F)F)C1)c1cnc2c(c1)[C@@H]1C[C@@H]1CN2 (single isomer, unassigned) [Example 359] | < 5.70
O=C(N[C@H]1CCc2c(c(F)cc(N3CC4CCC(C3)N4)c2C(F)F)C1)c1cnc2c(c1)[C@H]1C[C@H]1CN2 (single isomer, unassigned) [Example 360] | 5.70 to 6.70
O=C(N[C@@H]1CCc2c(c(F)cc(N3CC4CCC(C3)N4)c2C(F)F)C1)c1cnc2c(c1)[C@@H]1C[C@@H]1CN2 (single isomer, unassigned) [Example 361] | < 5.70
O=C(N[C@@H]1CCc2c(c(F)cc(N3CC4CCC(C3)N4)c2C(F)F)C1)c1cnc2c(c1)[C@H]1C[C@H]1CN2 (single isomer, unassigned) [Example 362] | 5.70 to 6.70
Cc1ccc2c(N)c(C(=O)N[C@H]3COc4cc(N5C[C@H](N)[C@@H](F)C5)ccc4C3)sc2n1 [Example 3-7, 3-amino-N-((R)-7-((3S,4S)-3-amino-4-fluoropyrrolidin-1-yl)chroman-3-yl)-6-methylthieno[2,3-b]pyridine-2-carboxamide] | 5.70 to 6.70
Cc1ccc2c(N)c(C(=O)N[C@H]3COc4cc(N5C[C@@H](N)[C@H](F)C5)ccc4C3)sc2n1 [Example 3-8, 3-amino-N-((R)-7-((3R,4R)-3-amino-4-fluoropyrrolidin-1-yl)chroman-3-yl)-6-methylthieno[2,3-b]pyridine-2-carboxamide] | 5.70 to 6.70
Cc1ccc2c(N)c(C(=O)N[C@H]3COc4cc(N5CCN[C@@H](C(F)(F)F)C5)ccc4C3)sc2n1 [Example 3-11, 3-amino-6-methyl-N-((R)-7-((R)-3-(trifluoromethyl)piperazin-1-yl)chroman-3-yl)thieno[2,3-b]pyridine-2-carboxamide] | 5.70 to 6.70
Cc1ccc2c(N)c(C(=O)N[C@H]3COc4cc(N5CCN[C@H](C(F)(F)F)C5)ccc4C3)sc2n1 [Example 3-12, 3-amino-6-methyl-N-((R)-7-((S)-3-(trifluoromethyl)piperazin-1-yl)chroman-3-yl)thieno[2,3-b]pyridine-2-carboxamide] | 5.70 to 6.70
Cc1ccc2c(N)c(C(=O)N[C@H]3COc4cc(N5CC[C@]6(CCCNC6)C5)ccc4C3)sc2n1 [Example 3-13, N-((R)-7-((S)-2,7-diazaspiro[4.5]decan-2-yl)chroman-3-yl)-3-amino-6-methylthieno[2,3-b]pyridine-2-carboxamide] | 5.70 to 6.70
Cc1ccc2c(N)c(C(=O)N[C@H]3COc4cc(N5CC[C@@]6(CCCNC6)C5)ccc4C3)sc2n1 [Example 3-14, N-((R)-7-((R)-2,7-diazaspiro[4.5]decan-2-yl)chroman-3-yl)-3-amino-6-methylthieno[2,3-b]pyridine-2-carboxamide] | 6.70 to 7.30
O=C(N[C@H]1COc2cc(N3CC4CCC(C3)N4)ccc2C1)c1cnc2c(c1)[C@@H]1C[C@@H]1CN2 [Example 3-15, (1aS,7bR)-N-((3R)-7-(3,8-diazabicyclo[3.2.l]octan-3-yl)chroman-3-yl)-1a,2,3,7b-tetrahydro-1H-cyclopropa[c][1,8]naphthyridine-6-carboxamide] | 6.70 to 7.30
O=C(N[C@H]1COc2cc(N3CC4CCC(C3)N4)ccc2C1)c1cnc2c(c1)[C@H]1C[C@H]1CN2 [Example 3-16, (1aR,7bS)-N-((3R)-7-(3,8-diazabicyclo[3.2.1]octan-3-yl)chroman-3-yl)-1a,2,3,7b-tetrahydro-1H-cyclopropa[c][1,8]naphthyridine-6-carboxamide] | < 5.70
Cc1ccc2c(N)c(C(=O)N[C@H]3COc4cc(N5CCC(F)(F)CC5)ccc4C3)sc2n1 [Example 5-1, (R)-3-amino-N-(7-(4,4-difluoropiperidin-1-yl)chroman-3-yl)-6-methylthieno[2,3-b]pyridine-2-carboxamide] | 6.70 to 7.30
Cc1ccc2c(N)c(C(=O)N[C@H]3COc4cc(N5CCS(=O)(=O)CC5)ccc4C3)sc2n1 [Example 5-2, (R)-3-amino-N-(7-(1,1-dioxidothiomorpholino)chroman-3-yl)-6-methylthieno[2,3-b]pyridine-2-carboxamide] | 6.70 to 7.30
Cc1ccc2c(N)c(C(=O)N[C@H]3COc4cc(N5CC(O)(C(F)(F)F)C5)ccc4C3)sc2n1 [Example 5-3, (R)-3-amino-N-(7-(3-hydroxy-3-(trifluoromethyl)azetidin-1-yl)chroman-3-yl)-6-methylthieno[2,3-b]pyridine-2-carboxamide] | 5.70 to 6.70
Cc1ccc2c(N)c(C(=O)N[C@H]3COc4cc(N5CC6COCC(C5)C6(F)F)ccc4C3)sc2n1 [Example 5-4, 3-amino-N-((3R)-7-(9,9-difluoro-3-oxa-7-azabicyclo[3.3.1]nonan-7-yl)chroman-3-yl)-6-methylthieno[2,3-b]pyridine-2-carboxamide] | 6.70 to 7.30
Cc1ccc2c(N)c(C(=O)N[C@H]3COc4cc(N5CCC(C(=O)O)CC5)ccc4C3)sc2n1 [Example 6-1, (R)-1-(3-(3-Amino-6-methylthieno[2,3-b]pyridine-2-carboxamido)chroman-7-yl)piperidine-4-carboxylic Acid] | < 5.70
Cc1ccc2c(N)c(C(=O)N[C@H]3COc4cc(N5CC[C@@H](C(=O)O)C5)ccc4C3)sc2n1 [Example 6-2, (R)-1-((R)-3-(3-amino-6-methylthieno[2,3-b]pyridine-2-carboxamido)chroman-7-yl)pyrrolidine-3-carboxylic acid] | < 5.70
Cc1ccc2c(N)c(C(=O)N[C@H]3COc4cc(N5CC[C@H](C(=O)O)C5)ccc4C3)sc2n1 [Example 6-3, (S)-1-((R)-3-(3-amino-6-methylthieno[2,3-b]pyridine-2-carboxamido)chroman-7-yl)pyrrolidine-3-carboxylic acid] | < 5.70
Cc1cnc2c(N)c(C(=O)N[C@H]3CCc4cc(N5CC(C(=O)O)C5)ccc4C3)sc2n1 [Example 6-4, (S)-1-(6-(7-amino-3-methylthieno[2,3-b]pyrazine-6-carboxamido)-5,6,7,8-tetrahydronaphthalen-2-yl)azetidine-3-carboxylic acid] | < 5.70
Cc1ccc2c(N)c(C(=O)N[C@H]3COc4cc(N5CCC(O)CC5)ccc4C3)sc2n1 [Example 7-1, (R)-3-amino-N-(7-(4-hydroxypiperidin-1-yl)chroman-3-yl)-6-methylthieno[2,3-b]pyridine-2-carboxamide] | 5.70 to 6.70
Cc1ccc2c(N)c(C(=O)N[C@H]3COc4cc(N5CCC[C@](C)(O)C5)ccc4C3)sc2n1 [Example 7-2] | 5.70 to 6.70
Cc1ccc2c(N)c(C(=O)N[C@H]3COc4cc(N5CCC[C@@](C)(O)C5)ccc4C3)sc2n1 [Example 7-3, 3-amino-N-((R)-7-((R)-3-hydroxy-3-methylpiperidin-l-yl)chroman-3-yl)-6-methylthieno[2,3-b]pyridine-2-carboxamide] | 5.70 to 6.70
Cc1ccc2c(N)c(C(=O)N[C@H]3CCc4nc(N5C[C@H](N)[C@H](C(F)F)C5)ccc4C3)sc2n1 [Example 345, 3-amino-N-[(6S)-2-[(3R,4R)-3-amino-4-(difluoromethyl)pyrrolidin-1-yl]-5,6,7,8-tetrahydroquinolin-6-yl]-6-methylthieno[2,3-b]pyridine-2-carboxamide] | 5.70 to 6.70
